# Patent publication US4760136A, “Chartreusin derivatives and salts thereof” (Ishihara Sangyo Kaisha, Ltd., priority 1984, dated 1988)
# Counter-ions that a name gives are not always drawn.
# How the values were obtained:
# ddY mice = assay: Acute toxicity, intravenous (once), ddY mice; assay type: in vivo; conditions: formulated per Preparation Example
# Source text: In Table 7 are shown acute toxicity values (LD50, mg/kg) in ddY mice in the case of intravenously administering (once) each of the compounds of this invention in the form of preparations shown in the Preparation Examples shown in Table 7.
# P-388 leukemia cells = assay: Antitumor activity: P-388 leukemia cells inoculated intraperitoneally, drug administered intravenously, BDF1 mice; assay type: in vivo; conditions: BDF1 mice, P-388 i.p.; for response vs control in vivo at 40 mg/kg / T/C (%) of MST: dose c: 40 mg/kg × 3, i.v. on days 1, 5 and 9; for response vs control in vivo at 80 mg/kg: dose f: 80 mg/kg × 3, i.v. on days 1, 5 and 9
# Method in brief: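 Drug dosing was intravenous on the first, fifth and ninth days after intraperitoneal inoculation of P-388 leukemia cells (1×10^6 per mouse) into BDF1 mice. Vehicles were physiological saline alone, or saline with small amounts of sodium carboxymethyl cellulose or Tween-80.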
# [1] = Mus musculus, P388, iv, read-out: T/C (%) of MST
Compound,LD50 (ddY mice) [mg/kg],response vs control in vivo at 40 mg/kg (P-388 leukemia cells; [1]) [%],response vs control in vivo at 80 mg/kg (P-388 leukemia cells; [1]) [%],other results
"COC1C(O)C(C)OC(OC2C(Oc3cccc4c(OC(=O)C5CCCCC5NC(=O)C(F)(F)F)c5c(=O)oc6ccc(C)c7c(=O)oc(c34)c5c67)OC(C)C3OC(c4cccc(F)c4)OC32)C1O (single isomer, unassigned) [Compound No. 117, 6-O-(N-Trifluoroacetyl-2-Amino-Cyclohexanecarbonyl)-3',4'-O-(m-Fluorobenzylidene)-Chartreusin]",≥ 30,135,,
COC1C(O)C(C)OC(OC2C(Oc3cccc4c(OC(=O)CCN)c5c(=O)oc6ccc(C)c7c(=O)oc(c34)c5c67)OC(C)C3OC(c4ccccc4)OC32)C1O (stereo not drawn) [Compound No. 17],≥ 40,,,"response vs control in vivo at 20 mg/kg (P-388 leukemia cells; Mus musculus, P388, iv, dose b: 20 mg/kg × 3, i.v. on days 1, 5 and 9, read-out: T/C (%) of MST): 206%; T/C (%) of MST (P-388 leukemia cells): 241%"
COC1C(O)C(C)OC(OC2C(Oc3cccc4c(OC(=O)CCNC=O)c5c(=O)oc6ccc(C)c7c(=O)oc(c34)c5c67)OC(C)C3OC(c4ccccc4)OC32)C1O (stereo not drawn) [Compound No. 40],≥ 100,,205,
COC1C(O)C(C)OC(OC2C(Oc3cccc4c(OC(=O)CCCCCNC(=O)OCc5ccccc5)c5c(=O)oc6ccc(C)c7c(=O)oc(c34)c5c67)OC(C)C3OC(c4ccccc4)OC32)C1O (stereo not drawn) [compound 110],≥ 60,154,,
COC1C(O)C(C)OC(OC2C(Oc3cccc4c(OC(=O)CCNC(=O)c5ccccc5)c5c(=O)oc6ccc(C)c7c(=O)oc(c34)c5c67)OC(C)C3OC(c4ccc(Br)cc4)OC32)C1O (stereo not drawn) [compound 124],≥ 80,,151,
COC1C(O)C(C)OC(OC2C(Oc3cccc4c(OC(=O)CCCNC(=O)C(F)(F)F)c5c(=O)oc6ccc(C)c7c(=O)oc(c34)c5c67)OC(C)C3OC(c4ccc(F)cc4)OC32)C1O (stereo not drawn) [Compound No. 57],≥ 80,162,208,
COC1C(O)C(C)OC(OC2C(Oc3cccc4c(OC(=O)CCNC(C)=O)c5c(=O)oc6ccc(C)c7c(=O)oc(c34)c5c67)OC(C)C3OC(c4ccccc4)OC32)C1O (stereo not drawn) [Compound No. 29],≥ 80,173,221,
COC1C(O)C(C)OC(OC2C(Oc3cccc4c(OC(=O)CC(C)NC(=O)C(F)(F)F)c5c(=O)oc6ccc(C)c7c(=O)oc(c34)c5c67)OC(C)C3OC(c4ccccc4)OC32)C1O (stereo not drawn) [compound 66],≥ 60,,171,
"COC1C(O)C(C)OC(OC2C(Oc3cccc4c(OC(=O)C(C)CNC(=O)C(F)(F)F)c5c(=O)oc6ccc(C)c7c(=O)oc(c34)c5c67)OC(C)C3OC(c4cccc(F)c4)OC32)C1O (stereo not drawn) [Compound No. 37, 6-O-(N-trifluoroacetyl-β-amino-isobutyryl)-3',4'-O-(m-fluorobenzylidene)-chartreusin]",≥ 30,,,"response vs control in vivo at 10 mg/kg (P-388 leukemia cells; Mus musculus, P388, iv, dose a: 10 mg/kg × 3, i.v. on days 1, 5 and 9, read-out: T/C (%) of MST): 146%"
COC1C(O)C(C)OC(OC2C(Oc3cccc4c(OC(=O)CCNC(=O)c5ccccc5)c5c(=O)oc6ccc(C)c7c(=O)oc(c34)c5c67)OC(C)C3OC(c4ccccc4)OC32)C1O (stereo not drawn) [compound 65],≥ 60,,175,
"COC1C(O)C(C)OC(OC2C(Oc3cccc4c(OC(=O)CCN)c5c(=O)oc6ccc(C)c7c(=O)oc(c34)c5c67)OC(C)C3OC(c4ccccc4)OC32)C1O (stereo not drawn) [compound 80, 6-O-(β-alanyl)-3',4'-O-benzylidene-chartreusin hydrochloride]",,,184,LD50 (ddY mice; hydrochloride): ≥ 80 mg/kg; T/C (%) of MST (P-388 leukemia cells; hydrochloride): 139%
COC1C(O)C(C)OC(OC2C(Oc3cccc4c(OC(=O)C5CC5)c5c(=O)oc6ccc(C)c7c(=O)oc(c34)c5c67)OC(C)C3OC(c4ccccc4)OC32)C1O (stereo not drawn) [compound 230],≥ 80,,144,
COC1C(O)C(C)OC(OC2C(Oc3cccc4c(OC(=O)C(C)CNC(=O)C(F)(F)F)c5c(=O)oc6ccc(C)c7c(=O)oc(c34)c5c67)OC(C)C3OC(c4cccc(F)c4)OC32)C1O (stereo not drawn) [compound 68],≥ 80,148,210,
COC1C(O)C(C)OC(OC2C(Oc3cccc4c(OC(=O)CCNC=O)c5c(=O)oc6ccc(C)c7c(=O)oc(c34)c5c67)OC(C)C3OC(c4ccsc4)OC32)C1O (stereo not drawn) [compound 89],≥ 80,,173,
